{
  "source": "patent US20210169899A1",
  "about": "“COMPOSITIONS AND THEIR USE IN ORAL DOSING REGIMENS” (Lipocine Inc., priority 2014, published 2021)",
  "test": "Clinical trial of oral testosterone undecanoate TRT in hypogonadal males, 24 hour PK profiles of serum testosterone with dose titration at weeks 3 and 7",
  "format": "in vivo, human",
  "description": "Specifically, 24 hour pharmacokinetic profiles for serum testosterone were determined for hypogonadal subjects receiving 225 mg TU twice daily with a meal after 3 weeks of treatment. The titration or dose adjustment was made based on the serum testosterone Cavg0-24 value calculated from the 24 hour pharmacokinetic profile (or the Cmax value). Another titration or dose adjustment was made similarly at 7 weeks. The titration or adjustment criteria used during the study is shown in the first column of Table A with the titration decision (dose adjustment) is shown in column 3.\nA clinical trial was performed as set forth below in regards to the TRT disclosed herein.\nDiagnosis of primary or secondary hypogonadism Male, 18 to 80 years of age, hypogonadism onset prior to age 65 Serum T<300 ng/dL, based on 2 consecutive samples, obtained on two separate days (6 to 10 AM) either naïve or following appropriate washout.\nIPSS≥19 points PSA>2 ng/mL\nHemoglobin <11.5 or >16.5 g/dL; Hematocrit <35 or >54% History of myocardial infarction; prostate or breast cancer; uncontrolled, untreated obstructive sleep apnea; gastric surgery, HIV, Hepatitis, seizures or convulsions Subjects with a partner who is pregnant or planning to become pregnant during the study A total of 314 subjects were enrolled and randomized into the TRT arm or active control arm. The clinical trial design is outlined in FIG. 1. Starting dose: 225 mg testosterone undecanoate (TU) (equivalent to 142 mg testosterone) twice daily, 12 hours apart, with standard meals Two dose titration periods based on full 24 hour PK profile at Week 3 and 7\nThe dose range was 150 mg to 300 mg BID (total daily dose of 300 mg to 600 mg TU).\nEfficacy Population (N=153): Subjects randomized into the study with at least one PK profile and no significant protocol deviations (includes imputed missing data/LOCF)\nSafety Set (N=210): Subjects randomized into the study and took at least one dose of the drug Imputed missing data by Last Observation Carried Forward (LOCF), or considered treatment failures if no PK data available Full Analysis Set (N=193): Subjects randomized into the study with at least one PK profile (includes imputed missing data/LOCF) Per Protocol Set (N=132): Subjects who completed Week 13 without significant protocol deviations Primary endpoint target ≥75% subjects should achieve Cavg within normal range (300 ng/dL to 1140 ng/dL) and >65% lower bound 95% CI",
  "key": {"[1]": {"conditions": "serum total T, Efficacy Population"}},
  "data": [
    {"smiles": "CCCCCCCCCCC(=O)O[C@H]1CC[C@H]2[C@@H]3CCC4=CC(=O)CC[C@]4(C)[C@H]3CC[C@]12C", "note": "[testosterone undecanoate]", "values": [
      {"measurement": "95% CI lower bound of % subjects with Cavg within normal range", "setting": "Efficacy Population", "result": 81.9, "unit": "%"},
      {"measurement": "% of subjects with Cavg < 300 ng/dL", "setting": "Efficacy Population", "result": 11.2, "unit": "%"},
      {"measurement": "% of subjects with Cavg > 1140 ng/dL", "setting": "Efficacy Population", "result": 0.7, "unit": "%"},
      {"measurement": "% subjects with Cavg within normal range", "setting": "Efficacy Population, serum testosterone Cavg 300 ng/dL to 1140 ng/dL", "result": 88.2, "unit": "%"},
      {"measurement": "95% CI lower bound of % subjects with Cavg within normal range", "setting": "Full Analysis Set", "result": 82.0, "unit": "%"},
      {"measurement": "% subjects with Cavg within normal range", "setting": "Full Analysis Set, Cavg 300 ng/dL to 1140 ng/dL", "result": 87.5, "unit": "%"},
      {"measurement": "95% CI lower bound of % subjects with Cavg within normal range", "setting": "Per Protocol Set", "result": 81.1, "unit": "%"},
      {"measurement": "% subjects with Cavg within normal range", "setting": "Per Protocol Set, Cavg 300 ng/dL to 1140 ng/dL", "result": 87.9, "unit": "%"},
      {"measurement": "95% CI lower bound of % subjects with Cavg within normal range", "setting": "Safety Set", "result": 73.8, "unit": "%"},
      {"measurement": "% subjects with Cavg within normal range", "setting": "Safety Set, Cavg 300 ng/dL to 1140 ng/dL", "result": 80.0, "unit": "%"},
      {"measurement": "AM - PM effect", "setting": "comparison table", "result": "Not much different AM - PM"},
      {"measurement": "Subjects with Cavg < 300 ng/dL", "setting": "comparison table", "result": 11, "unit": "%"},
      {"measurement": "Variability (CV) of Cavg", "setting": "comparison table", "result": 37, "unit": "%"},
      {"measurement": "Variability (CV) of Cmax", "setting": "comparison table", "result": 45, "unit": "%"},
      {"measurement": "Mean Cavg", "setting": "comparison table, serum testosterone", "result": 447, "unit": "ng/dL"},
      {"measurement": "Efficacy (% subjects with Cavg in normal range)", "setting": "comparison table, starting daily dose 450 mg TU", "result": "analysis (88.2%)"},
      {"measurement": "24 hour pharmacokinetic profiles at weeks 3, 7 and 13 (FIG. 2)", "setting": "patients without dose change during the trial", "result": "consistent inter-day pharmacokinetics"},
      {"measurement": "Cavg, Mean (CV)", "setting": "serum testosterone, Efficacy Population", "result": "447 (37%) ng/dL"},
      {"measurement": "Proportion of subjects with 1800 ≤ Cmax ≤ 2500 ng/dL", "setting": "[1]", "result": 4.6, "unit": "%"},
      {"measurement": "Proportion of subjects with Cmax < 1500 ng/dL", "setting": "[1]", "result": 82.9, "unit": "%"},
      {"measurement": "Proportion of subjects with Cmax > 2500 ng/dL", "setting": "[1]", "result": 2.0, "unit": "%"},
      {"measurement": "% subjects with serum testosterone Cavg0-24 h within the normal range", "setting": "subjects treated with TRT and titration scheme", "result": "about 87%"}
    ]}
  ]
}
